This passage reports IC50 results from patent publication US11535593B2, “3-phosphoglycerate dehydrogenase inhibitors and uses thereof” (Raze Therapeutics, Inc., priority 2016, dated 2022).

Each structure is given as a SMILES string. Where only a bound is given, the exact number is not on record here.

In one experiment the target is T1, Full length (FL) 3-Phosphoglycerate Dehydrogenase (PHGDH) (Homo sapiens, UniProt O43175).
T1 construct: Full length (FL) 3-Phosphoglycerate Dehydrogenase (PHGDH) Diaphorase coupled assay (500 uM NAD)
T1 sequence (O43175 1-533): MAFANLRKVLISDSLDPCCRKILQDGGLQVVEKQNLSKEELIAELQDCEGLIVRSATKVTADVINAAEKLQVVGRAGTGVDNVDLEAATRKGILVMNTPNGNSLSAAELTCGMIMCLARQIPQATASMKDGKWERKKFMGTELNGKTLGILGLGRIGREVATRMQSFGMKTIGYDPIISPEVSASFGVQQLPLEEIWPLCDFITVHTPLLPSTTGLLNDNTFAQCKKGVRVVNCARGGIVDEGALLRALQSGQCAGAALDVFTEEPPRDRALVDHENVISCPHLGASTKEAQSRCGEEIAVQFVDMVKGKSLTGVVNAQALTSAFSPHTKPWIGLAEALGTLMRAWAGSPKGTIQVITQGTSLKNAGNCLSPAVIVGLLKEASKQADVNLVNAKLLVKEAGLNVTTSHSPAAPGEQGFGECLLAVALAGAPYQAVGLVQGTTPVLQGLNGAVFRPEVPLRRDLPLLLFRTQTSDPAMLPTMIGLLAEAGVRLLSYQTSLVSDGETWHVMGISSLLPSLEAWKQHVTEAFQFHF
Put plainly: Full length (FL) PHGDH Diaphorase coupled assay (500 uM NAD). Conditions: 5 nM PHGDH, 30° C., 60 minutes. In kind it is biochemical. As to the method:
Full length (FL) 3-Phosphoglycerate Dehydrogenase (PHGDH) Diaphorase coupled assay (500 uM NAD)
PHGDH activity was determined by detecting the NADH produced during the reaction. Diaphorase was used to catalyze the oxidation of NADH with the concomitant reduction of resazurin to the fluorescent product resorufin. Resorufin fluorescence quantitatively reflected the production of NADH by the PHGDH reaction. To drive the forward reaction, two enzymes in the serine synthesis pathway subsequent to PHGDH, Phosphoserine aminotransferase (PSAT1) and phosphoserine phosphatase (PSPH) were also added to the reaction.
As to `Cn1c(C(=O)N[C@H](CO)c2ccc(C(=O)O)cc2)cc2c(Cl)c(Cl)c(OCC(=O)NCCO)cc21` [Compound I-40, 4-[(1S)-1-[[4,5-Dichloro-6-[2-(2-hydroxyethylamino)-2-oxo-ethoxy]-1-methyl-indole-2-carbonyl]amino]-2-hydroxy-ethyl]benzoic Acid], the IC50 (in general, the concentration at which inhibition is half-maximal) was in the range of 10 to 1000 nM.

Turning to `Cn1c(C(=O)NC(c2ccc(C(=O)O)cc2)C2CC2)cc2c(Cl)c(Cl)ccc21` (stereo not shown) [Compound I-42], the IC50 lay in the range of 1000 to 5000 nM.

For `Cn1c(C(=O)N[C@H](CO)c2ccc(C(=O)O)cc2)cc2c(Cl)c(Cl)ccc21` [Compound I-43, 4-[(1S)-1-[(4,5-dichloro-1-methyl-1H-indol-2-yl)formamido]-2-hydroxyethyl]benzoic acid], the IC50 lay in the range of 10 to 1000 nM.

`CC(NC(=O)c1cc2c(Cl)c(Cl)ccc2n1C)c1ccc(C(=O)O)cc1` (stereo not shown) [Compound I-44] returned an IC50 of 10 to 1000 nM.

A further experiment deals with T1, Full length (FL) 3-Phosphoglycerate Dehydrogenase (PHGDH). As to the kind of experiment: Full length (FL) PHGDH Diaphorase coupled assay (20 uM NAD). In kind it is biochemical. Conditions: 10 nM PHGDH, 30° C., 60 minutes, read-out: FL Diaphorase 20 μM NAD (PHGDH activity inhibition, IC50). How it is done: Example 57: Full Length (FL) 3-Phosphoglycerate Dehydrogenase (PHGDH) Diaphorase Coupled Assay (20 uM NAD)
Serial dilution of compounds were incubated in a volume of 20 μl in 384 well plates with the assay mixture containing 10 nM PHGDH, 500 nM PSAT1, 500 nM PSPH, 20 μM NAD^+, 80 uM 3-phosphoglycerate, 1 mM glutamate, 57 uM Resazurin and 0.2 mg/ml Diaphorase in assay buffer containing 50 mM Trisethanoloamine (TEA) pH8.0, 10 mM MgCl2, 0.01% Tween-20 and 0.05% Bovine Serum Albumin (BSA). The plate was then incubated at 30° C. for 60 minutes and resorufin fluorescence was measured at emission wavelength 598 nm following excitation at 525 nm. The positive control consisted of the complete reaction mixture with 4% DMSO and was set to 0% inhibition. […] Percent inhibition with the compounds was then calculated by normalizing the fluorescence observed at a given compound concentration to the positive and negative controls.
Regarding `CC(=O)NS(=O)(=O)N(C)CCC(NC(=O)c1cc2c(Cl)c(Cl)ccc2n1C)c1ccc(C(=O)O)cc1` (racemic) [Compound I-45, (±)-4-[3-[Acetylsulfamoyl(methyl)amino]-1-[(4,5-dichloro-1-methyl-indole-2-carbonyl)-amino]propyl]benzoic Acid], the IC50 was in the range of 10 to 1000 nM.

Consider `Cn1c(C(=O)NC(CN)c2ccc(C(=O)O)cc2)cc2c(Cl)c(Cl)ccc21` (racemic) [Compound I-46, (±)-4-(2-Amino-1-(4,5-dichloro-1-methyl-1H-indole-2-carboxamido)ethyl) benzoic Acid], for which the IC50 fell in the range of 10 to 1000 nM.

In the case of `CC(=O)NS(=O)(=O)NCCC(NC(=O)c1cc2c(Cl)c(Cl)ccc2n1C)c1cccc(CO)c1` (racemic) [Compound I-48, (±)-N-[3-(acetylsulfamoylamino)-1-[3-(hydroxymethyl)phenyl]propyl]-4,5-dichloro-1-methyl-indole-2-carboxamide], the IC50 lay within 1000 to 5000 nM.

As to `CC(=O)NS(=O)(=O)NCCC(NC(=O)c1cc2c(Cl)c(Cl)ccc2n1C)c1cccc(C(=O)O)c1` (racemic) [Compound I-49, (±)-3-[3-(Acetylsulfamoylamino)-1-[(4,5-dichloro-1-methyl-indole-2-carbonyl)amino]propyl]benzoic Acid], the IC50 was 10 to 1000 nM.

Consider `CC(=O)NS(=O)(=O)NCCC(NC(=O)c1cc2c(Cl)c(Cl)ccc2n1C)c1ccccc1` (racemic) [Compound I-50, (±)-N-[3-(acetylsulfamoylamino)-1-phenyl-propyl]-4,5-dichloro-1-methyl-indole-2-carboxamide], for which the IC50 lay in the range of 1000 to 5000 nM.

In the case of `CC(=O)NS(=O)(=O)NCCC(NC(=O)c1cc2c(Cl)c(Cl)ccc2n1C)c1ccc(C(=O)O)cc1` (stereo not shown) [Compound I-47, 4-[3-(Acetylsulfamoylamino)-1-[(4,5-dichloro-1-methyl-indole-2-carbonyl)amino]propyl]benzoic Acid], the IC50 was 10 to 1000 nM.

As to `CC(=O)NS(=O)(=O)N(C)CCCNC(=O)c1cc2c(Cl)c(Cl)ccc2n1C` [Compound I-51, N-[3-[acetylsulfamoyl(methyl)amino]propyl]-4,5-dichloro-1-methyl-indole-2-carboxamide], the concentration for half-maximal inhibition (IC50) was 5000 to 10000 nM.

As to `CC(=O)NS(=O)(=O)NCCCNC(=O)c1cc2c(Cl)c(Cl)ccc2n1C` [Compound I-52, N-[3-(acetylsulfamoylamino)propyl]-4,5-dichloro-1-methyl-indole-2-carboxamide], the IC50 fell in the range of 1000 to 5000 nM.

In the case of `Cn1c(C(=O)NC(C)(C)CC(N)=O)cc2c(Cl)c(Cl)ccc21` [Compound I-53, N-(3-amino-1,1-dimethyl-3-oxo-propyl)-4,5-dichloro-1-methyl-indole-2-carboxamide], the IC50 was over 10000 nM.
